Measured values as given in ChEMBL document CHEMBL4706549, “Isoquinolinone derivatives as potent CNS multi-receptor D/5-HT/5-HT/5-HT/5-HT agents: Synthesis and pharmacological evaluation” (Eur J Med Chem, 2020).
Calls of active or inactive are those of the source. The rule behind the calls is not given here.

How the values were obtained:
[1] = molecular target: Sigma non-opioid intracellular receptor 1 (Homo sapiens, UniProt Q99720); experiment: Binding affinity to sigma 1 receptor (unknown origin)
[2] = molecular target: Adrenergic receptor alpha-2 (Homo sapiens, UniProt P08913+P18825+P18089); experiment: Binding affinity to alpha2 adrenergic receptor (unknown origin); type: protein assay
[3] = molecular target: 5-hydroxytryptamine receptor 2C (Rattus norvegicus, UniProt P08909)
Chain of 5-hydroxytryptamine receptor 2C (Rattus norvegicus, UniProt P08909) (P08909 whole entry): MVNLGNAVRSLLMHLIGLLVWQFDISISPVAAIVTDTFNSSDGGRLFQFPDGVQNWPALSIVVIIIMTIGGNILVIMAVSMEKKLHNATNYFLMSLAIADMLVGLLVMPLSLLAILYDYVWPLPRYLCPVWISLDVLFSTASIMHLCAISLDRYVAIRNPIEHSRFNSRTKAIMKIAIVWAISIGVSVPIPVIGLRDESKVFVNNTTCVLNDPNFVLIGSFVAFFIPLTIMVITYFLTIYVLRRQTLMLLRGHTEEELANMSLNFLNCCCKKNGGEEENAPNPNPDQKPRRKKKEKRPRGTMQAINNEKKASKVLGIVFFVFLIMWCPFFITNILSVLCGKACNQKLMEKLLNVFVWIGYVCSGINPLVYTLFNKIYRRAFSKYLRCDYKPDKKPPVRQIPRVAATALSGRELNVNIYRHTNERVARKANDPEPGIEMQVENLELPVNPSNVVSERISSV
Description: Displacement of [3H]mesulergine from rat cerebral cortex 5HT2C receptor measured after 15 mins by liquid scintillation counting method

D(1A) dopamine receptor = D(1A) dopamine receptor (Homo sapiens, UniProt P21728); experiment: Binding affinity to D1 receptor (unknown origin)
Chain of D(1A) dopamine receptor (P21728 whole entry): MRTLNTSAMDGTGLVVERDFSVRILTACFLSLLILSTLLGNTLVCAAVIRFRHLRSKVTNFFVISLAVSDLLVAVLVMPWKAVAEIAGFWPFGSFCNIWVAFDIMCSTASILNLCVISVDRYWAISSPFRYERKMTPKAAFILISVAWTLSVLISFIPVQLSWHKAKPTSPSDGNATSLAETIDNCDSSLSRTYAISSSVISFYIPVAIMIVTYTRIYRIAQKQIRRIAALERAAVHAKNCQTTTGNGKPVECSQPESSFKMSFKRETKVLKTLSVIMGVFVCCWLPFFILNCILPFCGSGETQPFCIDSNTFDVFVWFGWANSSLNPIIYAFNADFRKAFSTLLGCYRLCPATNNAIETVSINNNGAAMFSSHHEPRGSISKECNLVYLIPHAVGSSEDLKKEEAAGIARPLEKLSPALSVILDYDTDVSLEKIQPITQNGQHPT

[4] = molecular target: T1, 5-hydroxytryptamine receptor 1A (Rattus norvegicus, UniProt P19327); experiment: biochemical
T1 sequence (P19327 whole entry): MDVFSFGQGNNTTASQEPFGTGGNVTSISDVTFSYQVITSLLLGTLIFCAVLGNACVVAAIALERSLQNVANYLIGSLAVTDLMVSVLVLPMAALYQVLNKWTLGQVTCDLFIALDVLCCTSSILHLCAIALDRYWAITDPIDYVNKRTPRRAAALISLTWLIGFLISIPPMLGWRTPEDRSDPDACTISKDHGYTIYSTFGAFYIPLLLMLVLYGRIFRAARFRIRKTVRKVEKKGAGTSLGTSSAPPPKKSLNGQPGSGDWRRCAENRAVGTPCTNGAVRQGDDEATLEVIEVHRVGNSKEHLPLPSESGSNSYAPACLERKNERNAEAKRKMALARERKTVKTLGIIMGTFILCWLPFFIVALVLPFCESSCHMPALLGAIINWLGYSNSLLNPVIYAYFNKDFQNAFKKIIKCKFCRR
Description: Displacement of [3H](+)8-OH-DPAT from rat cerebral cortex 5HT1A receptor measured after 30 mins by liquid scintillation counting method

[5] = molecular target: Adrenergic receptor alpha-1 (Rattus norvegicus, UniProt P15823+P23944+P43140)
Description: Displacement of [3H]prazosin from rat cerebral cortex alpha1 adrenergic receptor measured after 60 mins by liquid scintillation counting method

[6] = molecular target: Voltage-gated inwardly rectifying potassium channel KCNH2 (Homo sapiens, UniProt Q12809)
Description: Inhibition of human ERG expressed in HEK293 cells by whole-cell patch clamp method

[7] = molecular target: 5-hydroxytryptamine receptor 2A (Rattus norvegicus, UniProt P14842); experiment: biochemical
Chain of 5-hydroxytryptamine receptor 2A (Rattus norvegicus, UniProt P14842) (P14842 whole entry): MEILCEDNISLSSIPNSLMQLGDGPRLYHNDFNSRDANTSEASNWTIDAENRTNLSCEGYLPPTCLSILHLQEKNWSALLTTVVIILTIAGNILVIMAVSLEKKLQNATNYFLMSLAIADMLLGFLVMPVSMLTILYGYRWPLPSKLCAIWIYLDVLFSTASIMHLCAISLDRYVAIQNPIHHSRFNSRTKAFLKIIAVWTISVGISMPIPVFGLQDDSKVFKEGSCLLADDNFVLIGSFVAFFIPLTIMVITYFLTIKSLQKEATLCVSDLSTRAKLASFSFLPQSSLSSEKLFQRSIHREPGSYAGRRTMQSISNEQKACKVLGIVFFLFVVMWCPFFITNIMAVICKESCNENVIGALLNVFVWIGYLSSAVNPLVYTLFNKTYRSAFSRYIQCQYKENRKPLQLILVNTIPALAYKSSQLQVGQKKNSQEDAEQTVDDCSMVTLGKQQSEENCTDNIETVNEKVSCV

D(3) dopamine receptor = D(3) dopamine receptor (Homo sapiens, UniProt P35462)
Chain of D(3) dopamine receptor (P35462 whole entry): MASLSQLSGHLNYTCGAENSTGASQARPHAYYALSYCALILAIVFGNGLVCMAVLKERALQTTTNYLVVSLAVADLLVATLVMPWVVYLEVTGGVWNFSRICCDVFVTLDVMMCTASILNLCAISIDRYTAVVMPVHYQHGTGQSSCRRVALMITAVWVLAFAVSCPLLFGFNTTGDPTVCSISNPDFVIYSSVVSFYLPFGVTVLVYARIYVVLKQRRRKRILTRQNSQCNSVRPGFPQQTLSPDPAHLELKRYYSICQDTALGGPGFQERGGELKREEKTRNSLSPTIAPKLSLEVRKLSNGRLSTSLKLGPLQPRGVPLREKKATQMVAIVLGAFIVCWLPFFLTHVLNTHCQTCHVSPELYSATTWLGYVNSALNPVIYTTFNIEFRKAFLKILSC
Description: Binding affinity to D3 receptor (unknown origin)

[8] = molecular target: Sodium-dependent dopamine transporter (Homo sapiens, UniProt Q01959); experiment: Binding affinity to DAT (unknown origin)
Histamine H1 receptor [9] = molecular target: Histamine H1 receptor (Cavia porcellus, UniProt P31389)
Chain of Histamine H1 receptor (Cavia porcellus, UniProt P31389) (P31389 whole entry): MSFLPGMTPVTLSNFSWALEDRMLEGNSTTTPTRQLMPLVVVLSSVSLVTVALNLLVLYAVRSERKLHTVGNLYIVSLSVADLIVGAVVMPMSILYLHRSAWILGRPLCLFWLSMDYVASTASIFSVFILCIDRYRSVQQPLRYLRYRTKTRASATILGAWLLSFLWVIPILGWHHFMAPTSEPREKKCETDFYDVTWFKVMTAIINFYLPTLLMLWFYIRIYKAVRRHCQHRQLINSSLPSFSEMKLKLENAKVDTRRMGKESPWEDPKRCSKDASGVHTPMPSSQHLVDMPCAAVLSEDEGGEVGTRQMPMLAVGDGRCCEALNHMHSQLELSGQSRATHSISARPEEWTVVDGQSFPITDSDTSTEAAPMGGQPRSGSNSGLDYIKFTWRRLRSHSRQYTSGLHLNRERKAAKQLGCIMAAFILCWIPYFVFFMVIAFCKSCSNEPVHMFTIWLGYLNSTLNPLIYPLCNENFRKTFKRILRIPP
Description: Displacement of [3H]pyrilamine from guinea pig cerebellum histamine H1 receptor measured after 60 mins by liquid scintillation counting method

[10] = molecular target: Sodium-dependent serotonin transporter (Homo sapiens, UniProt P31645); experiment: Binding affinity to SERT (unknown origin)
[11] = molecular target: Sodium-dependent noradrenaline transporter (Homo sapiens, UniProt P23975); experiment: Binding affinity to NET (unknown origin)
Chain of Sodium-dependent noradrenaline transporter (P23975 whole entry): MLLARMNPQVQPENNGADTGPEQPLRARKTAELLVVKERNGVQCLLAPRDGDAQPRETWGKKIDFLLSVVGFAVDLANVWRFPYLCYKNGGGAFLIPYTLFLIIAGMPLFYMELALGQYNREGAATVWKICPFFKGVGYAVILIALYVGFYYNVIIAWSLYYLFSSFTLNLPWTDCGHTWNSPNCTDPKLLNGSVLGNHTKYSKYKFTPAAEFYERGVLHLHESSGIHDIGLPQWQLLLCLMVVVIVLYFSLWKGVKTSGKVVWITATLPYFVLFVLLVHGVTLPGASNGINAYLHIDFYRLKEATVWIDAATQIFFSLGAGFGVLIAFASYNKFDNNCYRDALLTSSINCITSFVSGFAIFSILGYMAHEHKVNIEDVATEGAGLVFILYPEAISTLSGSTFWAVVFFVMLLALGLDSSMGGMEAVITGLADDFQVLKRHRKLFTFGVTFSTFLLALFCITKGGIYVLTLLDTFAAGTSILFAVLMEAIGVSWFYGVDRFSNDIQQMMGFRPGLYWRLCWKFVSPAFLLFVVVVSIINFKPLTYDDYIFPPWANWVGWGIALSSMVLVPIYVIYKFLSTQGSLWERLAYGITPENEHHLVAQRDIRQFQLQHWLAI

[12] = molecular target: 5-hydroxytryptamine receptor 7 (Rattus norvegicus, UniProt P32305); experiment: biochemical
Chain of 5-hydroxytryptamine receptor 7 (P32305 whole entry): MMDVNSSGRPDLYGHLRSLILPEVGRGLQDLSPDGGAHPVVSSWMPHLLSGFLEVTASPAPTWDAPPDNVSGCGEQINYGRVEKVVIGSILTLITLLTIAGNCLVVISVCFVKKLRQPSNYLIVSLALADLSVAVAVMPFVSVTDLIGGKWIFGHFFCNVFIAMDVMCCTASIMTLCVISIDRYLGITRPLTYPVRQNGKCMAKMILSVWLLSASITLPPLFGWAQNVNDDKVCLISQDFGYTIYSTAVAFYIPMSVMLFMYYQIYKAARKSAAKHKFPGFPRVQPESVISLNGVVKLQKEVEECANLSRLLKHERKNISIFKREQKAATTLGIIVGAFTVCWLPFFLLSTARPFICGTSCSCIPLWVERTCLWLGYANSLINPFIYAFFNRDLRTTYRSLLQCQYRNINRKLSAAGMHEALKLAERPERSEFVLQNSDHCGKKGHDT

Histamine H3 receptor = Histamine H3 receptor (Homo sapiens, UniProt Q9Y5N1); experiment: Binding affinity to H3 receptor (unknown origin)
[13] = molecular target: Sigma intracellular receptor 2 (Homo sapiens, UniProt Q5BJF2); experiment: Binding affinity to sigma 2 receptor (unknown origin)
Chain of Sigma intracellular receptor 2 (Q5BJF2 whole entry): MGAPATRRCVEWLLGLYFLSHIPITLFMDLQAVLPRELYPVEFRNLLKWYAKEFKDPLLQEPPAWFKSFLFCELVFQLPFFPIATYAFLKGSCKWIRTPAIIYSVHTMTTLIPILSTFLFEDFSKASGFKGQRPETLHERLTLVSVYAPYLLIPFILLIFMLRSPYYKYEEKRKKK

[14] = molecular target: T2, 5-hydroxytryptamine receptor 2A (Homo sapiens, UniProt P28223); experiment: Antagonist activity at human 5HT2A receptor expressed in CHO-K1 cells assessed as inhibition of 5HT-induced calcium flux incubated for 60 mins at 37 degC followed by 15 mins incubation at room temperature and subsequent 5HT addition by calcium 4 dye based FLIPR assay; type: functional, cell-based
T2 sequence (P28223 whole entry): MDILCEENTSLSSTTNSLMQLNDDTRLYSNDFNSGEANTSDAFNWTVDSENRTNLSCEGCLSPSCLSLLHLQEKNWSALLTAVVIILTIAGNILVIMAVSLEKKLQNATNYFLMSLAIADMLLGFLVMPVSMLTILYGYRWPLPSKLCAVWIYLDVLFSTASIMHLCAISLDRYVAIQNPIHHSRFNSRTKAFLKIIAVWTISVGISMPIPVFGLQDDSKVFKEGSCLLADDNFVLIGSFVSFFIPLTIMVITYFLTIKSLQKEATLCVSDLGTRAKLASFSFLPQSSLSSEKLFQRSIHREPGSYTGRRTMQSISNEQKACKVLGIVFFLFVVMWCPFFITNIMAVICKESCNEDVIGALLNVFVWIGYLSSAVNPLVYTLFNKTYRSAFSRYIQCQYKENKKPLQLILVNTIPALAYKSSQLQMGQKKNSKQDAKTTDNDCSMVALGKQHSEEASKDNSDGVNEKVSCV

[15] = Effect on spontaneous locomotor activity in Kunming mouse assessed as total distance traveled at 1 mg/kg, ig measured after 1 hr (reference value: 13579 +/- 8864 millimeter); type: ADME, organism-based; conditions: in vivo, po
[16] = Effect on spontaneous locomotor activity in Kunming mouse assessed as total distance traveled at 3 mg/kg, ig measured after 1 hr (reference value: 13579 +/- 8864 millimeter); type: ADME, organism-based; conditions: in vivo, po
[17] = Effect on spontaneous locomotor activity in Kunming mouse assessed as total distance traveled at 10 mg/kg, ig measured after 1 hr (reference value: 13579 +/- 8864 millimeter); type: ADME, organism-based; conditions: in vivo, po
D(2) dopamine receptor [18] = molecular target: D(2) dopamine receptor (Rattus norvegicus, UniProt P61169); experiment: biochemical
Chain of D(2) dopamine receptor (Rattus norvegicus, UniProt P61169) (P61169 whole entry): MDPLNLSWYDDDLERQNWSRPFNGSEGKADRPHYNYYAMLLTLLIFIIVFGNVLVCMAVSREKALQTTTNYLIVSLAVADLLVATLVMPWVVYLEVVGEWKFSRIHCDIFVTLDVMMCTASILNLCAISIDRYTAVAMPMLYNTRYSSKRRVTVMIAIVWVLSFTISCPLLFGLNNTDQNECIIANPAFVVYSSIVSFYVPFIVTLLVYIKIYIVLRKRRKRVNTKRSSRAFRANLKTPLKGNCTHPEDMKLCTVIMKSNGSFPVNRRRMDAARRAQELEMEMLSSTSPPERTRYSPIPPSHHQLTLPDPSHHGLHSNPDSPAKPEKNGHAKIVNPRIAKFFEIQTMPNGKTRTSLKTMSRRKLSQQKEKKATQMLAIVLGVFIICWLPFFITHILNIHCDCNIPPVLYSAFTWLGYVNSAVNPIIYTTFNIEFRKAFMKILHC
Description: Displacement of [3H]spiperone from D2 receptor in rat striatum measured after 15 mins by liquid scintillation counting method

[19] = Displacement of [3H]ketanserin from human 5HT2A receptor expressed in CHO-K1 cells measured after 20 mins
Rattus norvegicus = experiment: Cognitive enhancement effect in Sprague-Dawley rat assessed as increase in time spent in exploring novel object at 0.2 mg/kg, po administered 1 hr prior to acquisition trial and measured after 24 hrs by novel object recognition test; type: functional, organism-based
[20] = Effect on total exploration time in Sprague-Dawley rat at 0.2 mg/kg, po measured after 1 hr by novel object recognition test; type: ADME, organism-based; conditions: in vivo
Mus musculus [21] = species on record: Mus musculus; experiment: animal or person; conditions: Kunming, po, 1.333 h
Mus musculus [22] = species on record: Mus musculus; experiment: animal or person; conditions: Kunming, po
Description: Antipsychotic activity in Kunming mouse assessed as inhibition of MK801-induced locomotor activity administered orally 30 mins prior to MK801 challenge and measured for 90 mins

[23] = mouse, in vivo, po
Description: Toxicity in po dosed Kunming mouse assessed as catalepsy

Mus musculus [24] = species on record: Mus musculus; experiment: animal or person; conditions: Kunming, po; remark: listed apart in the source
[25] = Toxicity in Kunming mouse assessed as change in body weight at 0.1 to 0.3 mg/kg, po administered for 28 days measured daily during compound dosing; type: organism-based; conditions: in vivo, 672 h, dose 0.1-0.3 mg/kg, time 28 day
[26] = molecular target: T2, 5-hydroxytryptamine receptor 2A; experiment: Binding affinity to 5HT2A receptor (unknown origin)
D(2) dopamine receptor [27] = molecular target: D(2) dopamine receptor (Homo sapiens, UniProt P14416); experiment: Binding affinity to D2 receptor (unknown origin)
Histamine H1 receptor [28] = molecular target: Histamine H1 receptor (Homo sapiens, UniProt P35367); experiment: Binding affinity to H1 receptor (unknown origin)
[29] = molecular target: 5-hydroxytryptamine receptor 1A (Homo sapiens, UniProt P08908); experiment: Binding affinity to 5HT1A receptor (unknown origin)
Chain of 5-hydroxytryptamine receptor 1A (Homo sapiens, UniProt P08908) (P08908 whole entry): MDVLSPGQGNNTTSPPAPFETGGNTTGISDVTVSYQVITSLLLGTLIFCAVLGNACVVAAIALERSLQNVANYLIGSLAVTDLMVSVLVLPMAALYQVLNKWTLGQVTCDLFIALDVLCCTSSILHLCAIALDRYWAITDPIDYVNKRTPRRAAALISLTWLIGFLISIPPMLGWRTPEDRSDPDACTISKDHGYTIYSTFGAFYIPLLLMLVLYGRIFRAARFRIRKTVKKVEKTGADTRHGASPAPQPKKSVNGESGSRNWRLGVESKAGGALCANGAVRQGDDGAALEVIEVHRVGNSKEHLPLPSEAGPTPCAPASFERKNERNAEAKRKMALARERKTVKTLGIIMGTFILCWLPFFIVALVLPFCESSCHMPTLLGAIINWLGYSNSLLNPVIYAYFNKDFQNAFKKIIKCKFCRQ

[30] = molecular target: 5-hydroxytryptamine receptor 2C (Homo sapiens, UniProt P28335); experiment: Binding affinity to 5HT2C receptor (unknown origin)
[31] = Therapeutic index, ratio of ED50 for toxicity in po dosed Kunming mouse assessed as catalepsy to ED50 for antipsychotic activity in Kunming mouse assessed as inhibition of apomorphine-induced climbing behavior; type: organism-based; conditions: in vivo, read-out: Ratio ED50
[32] = Therapeutic index, ratio of ED50 for toxicity in po dosed Kunming mouse assessed as catalepsy to ED50 for antipsychotic activity in Kunming mouse assessed as inhibition of MK801-induced locomotor activity; type: organism-based; conditions: in vivo, read-out: Ratio ED50
[33] = molecular target: 5-hydroxytryptamine receptor 6 (Homo sapiens, UniProt P50406)
Description: Displacement of [3H]lysergic acid diethylamide from human recombinant 5HT6 receptor stably expressed in CHO cell membranes measured after 30 mins by liquid scintillation counting method

Structure (SMILES) | Ki [4] [nM] | Ki [7] [nM] | Ki (D(2) dopamine receptor [18]) [nM] | also measured
CN1CCc2ccc(OCCCN3CCC(c4noc5cc(F)ccc45)CC3)cc2C1=O | 9.1 | 0.65 |  | Ki [1]: > 1000 nM; Ki [2]: > 1000 nM; Ki [3]: 1690 nM; Ki (D(1A) dopamine receptor): > 1000 nM; Ki [5]: 991 nM; IC50 [6]: 2310 nM; Ki (D(3) dopamine receptor): 226 nM; Ki [8]: > 1000 nM; Ki (Histamine H1 receptor [9]): 1200 nM; Ki [10]: > 1000 nM; Ki [11]: > 1000 nM; Ki [12]: 4.9 nM; Ki (Histamine H3 receptor): > 1000 nM; Ki [13]: > 1000 nM; IC50 [14]: 46.3 nM
O=C1CN=C(c2ccccc2Cl)c2cc([N+](=O)[O-])ccc2N1 [CLONAZEPAM] |  |  |  | Activity [15]: 12188 mm; Activity [16]: 5784 mm; Activity [17]: 762 mm
COc1ccccc1N1CCN(CCCCOc2ccc3c(c2)C(=O)N(C)CC3)CC1 | > 10000 | > 10000 | > 10000 | 
CN1CCc2ccc(OCCCN3CCN(c4ccc(Cl)cc4)CC3)cc2C1=O | 356 | 589 | 268 | 
O=c1ccc2ccc(OCCCCN3CCN(c4cccc5sccc45)CC3)cc2[nH]1 [BREXPIPRAZOLE] |  |  |  | Ki [19]: 0.47 nM
CC1CCc2ccc(OCCCCN3CCC(c4nsc5ccccc45)CC3)cc2C1=O (stereo unspecified) | 1300 | 890 | > 10000 | 
CN1CCc2ccc(OCCCN3CCN(c4cccc(C(F)(F)F)c4)CC3)cc2C1=O | 1040 | 102 | 123 | 
CN1CCc2ccc(OCCCCN3CCN(c4cccc(Cl)c4Cl)CC3)cc2C1=O | 119 | 216 | 316 | 
CN1CCc2ccc(OCCCN3CCC(C(=O)c4ccc(F)cc4F)CC3)cc2C1=O | > 10000 | > 10000 | 902 | 
CCN(C)C(=O)Oc1cccc([C@H](C)N(C)C)c1 [RIVASTIGMINE] |  |  |  | Activity (Rattus norvegicus): Active; Activity [20]: Non-Toxic
CN1CCc2ccc(OCCCN3CCN(c4ncccn4)CC3)cc2C1=O | 59.3 | 65.3 | 1370 | 
COc1ccc(N2CCN(CCCOc3ccc4c(c3)C(=O)N(C)CC4)CC2)cc1 | > 10000 | > 10000 | > 10000 | 
CN1CCc2ccc(OCCCN3CCN(c4ccc5ccccc5n4)CC3)cc2C1=O | 10.2 | > 10000 | > 10000 | 
CN1CCc2ccc(OCC(O)CN3CCC(c4noc5cc(F)ccc45)CC3)cc2C1=O (stereo unspecified) | 856 | 768 | 1240 | 
CN1CCc2cc(OCCCN3CCC(c4noc5cc(F)ccc45)CC3)ccc2C1=O | > 10000 | 692 | > 10000 | 
CN1CCc2ccc(OCCCCN3CCN(c4cccc5sccc45)CC3)cc2C1=O | 431 |  | 162 | 
CN1CCc2ccc(OCCCN3CCN(c4ccc(F)cc4)CC3)cc2C1=O | 158 | 246 | 532 | 
CN1CCc2ccc(OCCCCN3CCC(c4noc5cc(F)ccc45)CC3)cc2C1=O | 30.6 | 28.3 | 41.6 | 

Structure (SMILES) | Ki [4] [nM] | Ki [7] [nM] | Ki (D(2) dopamine receptor [18]) [nM] | also measured
CN1CCc2ccc(OCCCN3CCN(c4ccccn4)CC3)cc2C1=O | > 10000 | 1160 | > 10000 | 
CN1CCc2ccc(OCCCN3CCN(c4ccccc4F)CC3)cc2C1=O | 262 | 306 | 117 | 
Cc1nc2n(c(=O)c1CCN1CCC(c3noc4cc(F)ccc34)CC1)CCCC2 [RISPERIDONE] |  |  |  | ED50 (Mus musculus [21]): 0.04 mg/kg; ED50 (Mus musculus [22]): 0.04 mg/kg; ED50 [23]: 1.62 mg/kg; ED50 (Mus musculus [24]): 0.02 mg/kg; Activity [20]: Non-Toxic; Activity [25]: Toxic
CN1COc2ccc(OCCCN3CCC(c4noc5cc(F)ccc45)CC3)cc2C1=O | 187 | 598 | 698 | 
O=C(CCCCN1CCC(c2noc3cc(F)ccc23)CC1)c1cc2c3c(c1)CCN3C(=O)CC2 |  |  |  | Ki [26]: 0.72 nM; Ki (D(2) dopamine receptor [27]): 2.9 nM; Ki (Histamine H1 receptor [28]): 630 nM; Ki (D(3) dopamine receptor): 1.66 nM; Ki [29]: 8.6 nM; Ki [30]: 616 nM
CN1CCc2ccc(OCCCN3CCN(c4cccc5sccc45)CC3)cc2C1=O | 65.2 |  |  | 
CN1CCc2ccc(OCCCN3CCN(c4ccccc4Cl)CC3)cc2C1=O | 89.2 | 179 | 391 | 
CN1CCc2ccc(OCCN3CCC(c4noc5cc(F)ccc45)CC3)cc2C1=O | > 10000 | > 10000 | 568 | 
CN1CCc2ccc(OCC(F)CN3CCC(c4noc5cc(F)ccc45)CC3)cc2C1=O (stereo unspecified) | 68.2 | 23.7 | 359 | 
O=C(CCCN1CCC(O)(c2ccc(Cl)cc2)CC1)c1ccc(F)cc1 [HALOPERIDOL] |  |  |  | ED50 (Mus musculus [22]): 0.11 mg/kg; selectivity ratio [31]: 3.5; ED50 [23]: 0.32 mg/kg; ED50 (Mus musculus [24]): 0.09 mg/kg; selectivity ratio [32]: 2.9
CCN1CCc2ccc(OCCCN3CCC(c4noc5cc(F)ccc45)CC3)cc2C1=O | 198 | 92.1 | 249 | 
Cn1ccc2ccc(OCCCN3CCC(c4noc5cc(F)ccc45)CC3)cc2c1=O | 12.1 | 3.5 | 9.2 | Ki [3]: 129 nM; Ki [33]: 167 nM; Ki [5]: 718 nM; Ki (Histamine H1 receptor [9]): 118 nM; Ki [12]: 109 nM
CN1CCc2ccc(OCCCN3CCN(Cc4ccc5c(c4)OCO5)CC3)cc2C1=O | 18.3 | 25.9 | > 10000 | 
CN1CCc2ccc(OCCCCN3CCN(c4cccc(C(F)(F)F)c4)CC3)cc2C1=O | 1040 | 132 | 261 | 
COc1ccccc1N1CCN(CCCOc2ccc3c(c2)C(=O)N(C)CC3)CC1 | 1110 | 992 | 896 | 
CN1CCc2ccc(OCCCN3CCN(c4cccc(Cl)c4Cl)CC3)cc2C1=O | 20.1 | 16.8 | 68.2 | 
CN1CCc2ccc(OCCCN3CCN(c4ccccc4)CC3)cc2C1=O | > 10000 | > 10000 | > 10000 | 
